Laboratory results: patent US20230093861A1, “RAPAMYCIN ANALOGS AS MTOR INHIBITORS” (Revolution Medicines, Inc., priority 2017, published 2023)
Read-outs that look alike come from different tables or passages of the source.

Legend:
[1] = tested on: P-Akt (S473); assay: Cell based AlphaLISA assay, inhibition of P-Akt (S473) (mTORC2 substrate phosphorylation) in MDA-MB-468 cells; settings: Homo sapiens, AlphaLISA, two to four hours at 37° C., read-out: pIC50 for Inhibition of mTORC1 and mTORC2 Substrate Phosphorylation, p-AKT 1/2/3 -(S473) (converted)
Procedure, shortened: (§1)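 Phosphoprotein levels were quantified with AlphaLISA SureFire Ultra kits after compound treatment. Incubation ended by removing assay buffer and lysing cells, and the Alpha signal was read in duplicate. IC50 came from normalized concentration-response regression with control-based normalization.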

[2] = tested on: P-4E-BP1 (T37/46); assay: Cell based AlphaLISA assay, inhibition of P-4E-BP1 (T37/46) (mTORC1 substrate phosphorylation) in MDA-MB-468 cells; settings: Homo sapiens, AlphaLISA, two to four hours at 37° C., read-out: pIC50 for Inhibition of mTORC1 and mTORC2 Substrate Phosphorylation, P-4E-BP1-(T37/46) (converted)
Procedure, shortened: as §1

[3] = tested on: P-P70S6K (T389); assay: Cell based AlphaLISA assay, inhibition of P-P70S6K (T389) (mTORC1 substrate phosphorylation) in MDA-MB-468 cells; settings: Homo sapiens, 4 h, AlphaLISA, two to four hours at 37° C., read-out: pIC50 for Inhibition of mTORC1 and mTORC2 Substrate Phosphorylation, P-P70S6K-(T389) (converted)
Procedure, shortened: as §1

SMILES	IC50 ([1]; MDA-MB-468, 4 h) [nM]	IC50 ([2]; MDA-MB-468, 4 h) [nM]	IC50 [3] [nM]	IC50 ([1]; 4 h) [nM]	IC50 ([2]; 4 h) [nM]
CO[C@H]1C[C@@H]2CC[C@@H](C)[C@@](O)(O2)C(=O)C(=O)N2CCCC[C@H]2C(=O)O[C@H]([C@H](C)C[C@@H]2CC[C@H](n3cc(-c4cccc(C(=O)NCCOCCOCCOCCC(=O)NCCOCCOCCOCCOCCC(=O)NCCCCn5nc(-c6ccc7oc(N)nc7c6)c6c(N)ncnc65)c4)nn3)[C@H](OC)C2)CC(=O)[C@H](C)/C=C(\C)[C@@H](O)[C@@H](OC)C(=O)[C@H](C)C[C@H](C)/C=C/C=C/C=C/1C [Example 139]	3.16 to 31.6	3.16 to 31.6	1 to 10	–	–
CO[C@H]1C[C@@H]2CC[C@@H](C)[C@@](O)(O2)C(=O)C(=O)N2CCCC[C@H]2C(=O)O[C@H]([C@H](C)C[C@@H]2CC[C@@H](O)[C@H](OC)C2)C[C@@H](O)[C@H](C)/C=C(\C)[C@@H](O)[C@@H](OC)C(=NOCc2cn(CCOCCOCCOCCOCCOCCOCCOCCOCCC(=O)N3CCc4cc(Cn5nc(-c6ccc7oc(N)nc7c6)c6c(N)ncnc65)ccc4C3)nn2)[C@H](C)C[C@H](C)/C=C/C=C/C=C/1C [Example 87]	> 1000	3.16 to 31.6	< 1	–	–
CO[C@H]1C[C@@H]2CC[C@@H](C)[C@@](O)(O2)C(=O)C(=O)N2CCCC[C@H]2C(=O)O[C@H]([C@H](C)C[C@@H]2CC[C@H](n3cc(CCCC(=O)NCCOCCOCCOCCC(=O)NCCOCCOCCOCCC(=O)NCCCCn4nc(-c5cc6cc(O)ccc6[nH]5)c5c(N)ncnc54)nn3)[C@H](OC)C2)CC(=O)[C@H](C)/C=C(\C)[C@@H](O)[C@@H](OC)C(=O)[C@H](C)C[C@H](C)/C=C/C=C/C=C/1C [Example 131]	31.6 to 1000	31.6 to 1000	1 to 10	–	–
CO[C@H]1C[C@@H]2CC[C@@H](C)[C@@](O)(O2)C(=O)C(=O)N2CCCC[C@H]2C(=O)O[C@H]([C@H](C)C[C@@H]2CC[C@H](n3cc(CCCC(=O)NCCOCCOCCOCCOCCC(=O)NCCOCCOCCOCCOCCC(=O)NCCCCn4nc(-c5cc6cc(O)ccc6[nH]5)c5c(N)ncnc54)nn3)[C@H](OC)C2)CC(=O)[C@H](C)/C=C(\C)[C@@H](O)[C@@H](OC)C(=O)[C@H](C)C[C@H](C)/C=C/C=C/C=C/1C [Example 135]	31.6 to 1000	3.16 to 31.6	1 to 10	–	–
CO[C@H]1C[C@@H]2CC[C@@H](C)[C@@](O)(O2)C(=O)C(=O)N2CCCC[C@H]2C(=O)O[C@H]([C@H](C)C[C@@H]2CC[C@@H](OCCCCc3cn(CCOCCOCCOCCOCCOCCOCCOCCOCCC(=O)N4CCC(Cn5nc(-c6ccc7oc(N)nc7c6)c6c(N)ncnc65)C4)nn3)[C@H](OC)C2)CC(=O)[C@H](C)/C=C(\C)[C@@H](O)[C@@H](OC)C(=O)[C@H](C)C[C@H](C)/C=C/C=C/C=C/1C (stereo partly drawn) [Example 7]	< 3.16	< 3.16	< 1	–	–
CO[C@H]1C[C@@H]2CC[C@@H](C)[C@@](O)(O2)C(=O)C(=O)N2CCCC[C@H]2C(=O)O[C@H]([C@H](C)C[C@@H]2CC[C@H](n3cc(-c4cnc(N5CCN(c6ncc(C(=O)NCCOCCOCCOCCOCCOCCC(=O)NCCCCn7nc(-c8ccc9oc(N)nc9c8)c8c(N)ncnc87)cn6)CC5)nc4)nn3)[C@H](OC)C2)CC(=O)[C@H](C)/C=C(\C)[C@@H](O)[C@@H](OC)C(=O)[C@H](C)C[C@H](C)/C=C/C=C/C=C/1C [Example 118]	3.16 to 31.6	< 3.16	< 1	–	–
COc1cccc2cc(-c3nc([C@H]4CC[C@H](C(=O)NCCOCCOCCOCCOCCOCCOCCn5cc(CCCCO[C@@H]6CC[C@@H](C[C@@H](C)[C@@H]7CC(=O)[C@H](C)/C=C(\C)[C@@H](O)[C@@H](OC)C(=O)[C@H](C)C[C@H](C)/C=C/C=C/C=C(\C)[C@@H](OC)C[C@@H]8CC[C@@H](C)[C@@](O)(O8)C(=O)C(=O)N8CCCC[C@H]8C(=O)O7)C[C@H]6OC)nn5)CC4)n4ncnc(N)c34)[nH]c12 [Example 106]	3.16 to 31.6	< 3.16	< 1	–	–
CO[C@H]1C[C@@H]2CC[C@@H](C)[C@@](O)(O2)C(=O)C(=O)N2CCCC[C@H]2C(=O)O[C@H]([C@H](C)C[C@@H]2CC[C@@H](O)[C@H](OC)C2)C[C@@H](O)[C@H](C)/C=C(\C)[C@@H](O)[C@@H](OC)C(=NOCc2cn(CCOCCOCCOCCOCCOCCOCCOCCOCCC(=O)NCCCCn3nc(-c4cnc5[nH]ccc5c4)c4c(N)ncnc43)nn2)[C@H](C)C[C@H](C)/C=C/C=C/C=C/1C [Example 79]	31.6 to 1000	3.16 to 31.6	< 1	–	–
CO[C@H]1C[C@@H]2CC[C@@H](C)[C@@](O)(O2)C(=O)C(=O)N2CCCC[C@H]2C(=O)O[C@H]([C@H](C)C[C@@H]2CC[C@H](n3cc(-c4cnc(N5CCN(c6ncc(C(=O)NCCOCCOCCOCCOCCC(=O)NCCCCn7nc(-c8ccc9oc(N)nc9c8)c8c(N)ncnc87)cn6)CC5)nc4)nn3)[C@H](OC)C2)CC(=O)[C@H](C)/C=C(\C)[C@@H](O)[C@@H](OC)C(=O)[C@H](C)C[C@H](C)/C=C/C=C/C=C/1C [Example 115]	< 3.16	< 3.16	< 1	–	–
COc1ccc(-c2ccc3ncc4c(c3c2)n(-c2ccc(N3CCN(C(=O)CCOCCOCCOCCOCCOCCOCCn5cc(CON=C6[C@H](C)C[C@H](C)/C=C/C=C/C=C(\C)[C@@H](OC)C[C@@H]7CC[C@@H](C)[C@@](O)(O7)C(=O)C(=O)N7CCCC[C@H]7C(=O)O[C@H]([C@H](C)C[C@@H]7CC[C@@H](O)[C@H](OC)C7)C[C@@H](O)[C@H](C)/C=C(\C)[C@@H](O)[C@H]6OC)nn5)CC3)c(C(F)(F)F)c2)c(=O)n4C)cn1 [Example 52]	3.16 to 31.6	3.16 to 31.6	< 1	–	–
COc1ccc(-c2ccc3ncc4c(c3c2)n(-c2ccc(N3CCN(c5ncc(CNC(=O)CCOCCOCCOCCOCCOCCOCCn6cc(CCCCO[C@@H]7CC[C@@H](C[C@@H](C)[C@@H]8CC(=O)[C@H](C)/C=C(\C)[C@@H](O)[C@@H](OC)C(=O)[C@H](C)C[C@H](C)/C=C/C=C/C=C(\C)[C@@H](OC)C[C@@H]9CC[C@@H](C)[C@@](O)(O9)C(=O)C(=O)N9CCCC[C@H]9C(=O)O8)C[C@H]7OC)nn6)cn5)CC3)c(C(F)(F)F)c2)c(=O)n4C)cn1 [Example 66]	< 3.16	< 3.16	< 1	–	–
CO[C@H]1C[C@@H]2CC[C@@H](C)[C@@](O)(O2)C(=O)C(=O)N2CCCC[C@H]2C(=O)O[C@H]([C@H](C)C[C@@H]2CC[C@@H](OCCCCc3cn(CCOCCOCCOCCOCCOCCOCCOCCOCCC(=O)NCCS(=O)(=O)c4ccc(C(=O)N5CCOc6ccc(-c7ccc(N)nc7)cc6C5)c(C)c4F)nn3)[C@H](OC)C2)CC(=O)[C@H](C)/C=C(\C)[C@@H](O)[C@@H](OC)C(=O)[C@H](C)C[C@H](C)/C=C/C=C/C=C/1C [Example 96]	3.16 to 31.6	< 3.16	< 1	–	–
CO[C@H]1C[C@@H]2CC[C@@H](C)[C@@](O)(O2)C(=O)C(=O)N2CCCC[C@H]2C(=O)O[C@H]([C@H](C)C[C@@H]2CC[C@@H](OCCCCc3cn(CCOCCOCCOCCOCCOCCOCCC(=O)NCCCCn4nc(-c5cc6cc(O)ccc6[nH]5)c5c(N)ncnc54)nn3)[C@H](OC)C2)CC(=O)[C@H](C)/C=C(\C)[C@@H](O)[C@@H](OC)C(=O)[C@H](C)C[C@H](C)/C=C/C=C/C=C/1C [Example 43]	–	–	< 1	31.6 to 1000	31.6 to 1000
CO[C@H]1C[C@@H]2CC[C@@H](C)[C@@](O)(O2)C(=O)C(=O)N2CCCC[C@H]2C(=O)O[C@H]([C@H](C)C[C@@H]2CC[C@H](n3nncc3-c3cccc(-c4cnc(N5CCN(Cc6cn(CCOCCOCCOCCOCCC(=O)NCCCCn7nc(-c8ccc9oc(N)nc9c8)c8c(N)ncnc87)nn6)CC5)nc4)c3)[C@H](OC)C2)CC(=O)[C@H](C)/C=C(\C)[C@@H](O)[C@@H](OC)C(=O)[C@H](C)C[C@H](C)/C=C/C=C/C=C/1C [Example 30]	3.16 to 31.6	< 3.16	< 1	–	–
CO[C@H]1C[C@@H]2CC[C@@H](C)[C@@](O)(O2)C(=O)C(=O)N2CCCC[C@H]2C(=O)O[C@H]([C@H](C)C[C@@H]2CC[C@H](n3cc(COC(=O)NCCOCCOCCOCCC(=O)NCCOCCOCCOCCC(=O)NCCCCn4nc(-c5cc6cc(O)ccc6[nH]5)c5c(N)ncnc54)nn3)[C@H](OC)C2)C/C(=N/OCc2ccccc2)[C@H](C)/C=C(\C)[C@@H](O)[C@@H](OC)C(=O)[C@H](C)C[C@H](C)/C=C/C=C/C=C/1C [Example 157]	> 1000	> 1000	> 1000	–	–
CO[C@H]1C[C@@H]2CC[C@@H](C)[C@@](O)(O2)C(=O)C(=O)N2CCCC[C@H]2C(=O)O[C@H]([C@H](C)C[C@@H]2CC[C@H](n3cc(-c4cnc(N5CCN(c6ncc(C(=O)NCCOCCOCCOCCC(=O)NCCCCn7nc(-c8cc9cc(O)ccc9[nH]8)c8c(N)ncnc87)cn6)CC5)nc4)nn3)[C@H](OC)C2)CC(=O)[C@H](C)/C=C(\C)[C@@H](O)[C@@H](OC)C(=O)[C@H](C)C[C@H](C)/C=C/C=C/C=C/1C [Example 114]	> 1000	> 1000	< 1	–	–
